Measured values reported in patent US8911953B2, “TDF-related compounds and analogs thereof, analogs and bioactive fragments” (Thrasos Innovation, Inc., priority 2005, dated 2014).
Positions of bridges follow the written chain, without caps; N, C: chain ends. No end group written: not given here.

Assays:
[1] = tested on: vascular endothelial cells; assay: Smad 1, 5 phosphorylation in vascular endothelial cells (Western blot); assay type: cell-based; conditions: added to vascular endothelial cells in culture
Method: (§1) Phosphorylation and nuclear translocation of Smads occurs following the activation of Type I and Type II receptors and subsequent signal transduction to intracellular Smad targets. Phosphorylation and nuclear translocation of R-Smad in HK-2, vascular endothelial, human prostate or other cells by TDFRP compounds is assayed by immuno-fluorescent microscopy methods, using anti-phospho Smad 1/5 antibodies according to the procedure of H Aoki, M Fujii, T Imamura, K Yagi, K Takehara, M Kato and K Miyazono. J. of Cell Sci. 114, 1483-1489, 2001) and by Western blot analysis (FIGS. 2, 3, 18, 2X).
The detection of Smad phosphorylation by Western analysis, for example in LNCaP (prostate cancer cells) or EC (vascular endothelial cells) in culture medium can be examined after exposure to varying concentrations of TDFRP or control compounds. BMP-7 serves as a positive control. Cells are lysed in RIPA lysis buffer (50 mM Tris-HCl at pH 8.0, 150 mM NaCl, 1% NP-40, 0.5% sodium deoxycholate, 0.1% SDS) containing 1 mM PMSF, 1 mM sodium orthovanadate, and 10 ug/mL proteinase inhibitor cocktail. Lysates are incubated on ice for 15 minutes, centrifuged, and transferred supernatant to a clean tube. 50 to 100 ug is used for analysis by SDS-PAGE. Resolved proteins are electro transferred onto PVDF membrane. The blot is blocked by incubating in 3% non-fat dry milk prepared in PBS at room temperature for 1 hour with constant slow agitation. The blot is incubated with 1-2 ug/mL of primary antibody (rabbit anti-phospho-Smad 1) prepared in PBS-milk, overnight with agitation at 4 degree C., washed twice with PBS, and incubated with secondary antibody (anti rabbit HRP conjugated IgG, 1:3000 dilution) at room temperature for 2 hours with agitation. After washing in PBS-0.05% Tween 20 for 5 minutes and rinsing, Smad phosphorylation is detected via an HRP reaction according to manufacturer's instructions (FIGS. 2, 3, 18, 2X).
Phosphorylation and nuclear translocation of Smads occurs following the activation of Type I and Type II receptors and subsequent signal transduction to intracellular Smad targets. Phosphorylation and nuclear translocation of R-Smad in HK-2 cells by TDFRP compounds is assayed by immuno-fluorescent microscopy methods, using anti-phospho Smad 1/5 antibodies according to the procedure of H Aoki, M Fujii, T Imamura, K Yagi, K Takehara, M Kato and K Miyazono. J. of Cell Sci. 114, 1483-1489, 2001) and by Western blot analysis in various cell types (FIGS. 2, 3, 18, 27).
For detection of Smad phosphorylation by Western analysis, LNCaP (prostate cancer cells) or EC (vascular endothelial cells) in culture medium are exposed to varying concentrations of TDFRP or control compounds. BMP-7 served as a positive control. Cells are lysed in RIPA lysis buffer (50 mM Tris-HCl at pH 8.0, 150 mM NaCl, 1% NP-40, 0.5% sodium deoxycholate, 0.1% SDS) containing 1 mM PMSF, 1 mM sodium orthovanadate, and 10 ug/mL proteinase inhibitor cocktail. Lysates are incubated on ice for 15 minutes, centrifuged, and transferred supernatant to a clean tube. 50 to 100 ug is used for analysis by
SDS-PAGE. Resolved proteins are electro transferred onto PVDF membrane. The blot is blocked by incubating in 3% non-fat dry milk prepared in PBS at room temperature for 1 hour with constant slow agitation. The blot is incubated with 1-2 ug/mL of primary antibody (rabbit anti-phospho-Smad 1) prepared in PBS-milk, overnight with agitation at 4 degree C., washed twice with PBS, and incubated with secondary antibody (anti rabbit HRP conjugated IgG, 1:3000 dilution) at room temperature for 2 hours with agitation. After washing in PBS-0.05% Tween 20 for 5 minutes and rinsing, Smad phosphorylation is detected via an HRP reaction according to manufacturer's instructions (FIGS. 3, 27).

HK-2 cells [2] = assay: Smad1 phosphorylation and nuclear translocation in HK-2 cells (immunofluorescence); assay type: cell-based, human; conditions: 1.3 uM and 33 uM compound
Method: as §1
For example, HK-2, human proximal tubule cells are incubated in culture medium alone or exposed TDFRP or control compounds for one hour ten minutes at 37 degree C. BMP-7 served as a positive control in the assay. Each well is rinsed with 1 mL prewarmed medium. 1 mL per well of cold Acetone/Methanol mix (1:1) is added and incubated for 2 minutes at room temperature to fix the cells. Wells are washed with 1 mL of cold PBS and blocked with 1 mL blocking buffer (3% BSA, 1% goat serum in PBS) for 7 minutes. Wells are aspirated without disturbing the cells, and 500 uL/well primary antibody is added (anti-phospho-Smad 1) at 0.056 ug/mL concentration in 3% BSA in PBS (no goat serum). Cells are incubated overnight at 4 degrees C. […]

HK-2 cells [3] = assay: Cisplatin-induced apoptosis in HK-2 cells (Annexin V staining); assay type: cell-based, human; conditions: 10 uM cisplatin, 500 uM compound, prophylactic or therapeutic
Method: Apoptosis and cell viability are quantified using AnnexinV-FITC and propidium iodide staining of HK-2 cells following cisplatin treatment. Immortalized PTEC-derived HK-2 cells (ATCC number CRL-2190) are cultured in serum-free keratinocyte medium (GIBCO number 17005-042) supplemented with EGF and BPE for 48 hours (Ryan et al. 1994 Kidney Int 45:48-57). Medium is aspirated and cells are washed with PBS and incubated in the dark for 15 min at room temperature with 10 μl of media binding agent and 1.25 μl of FITC conjugated AnnexinV. Propidium iodide (10 μl) is added, and samples are analyzed immediately. Quantification of Annexin V-FITC and propidium iodide signals is performed by fluorescence microscopy (Axiovert 135; Carl Zeiss). Phase contrast images are observed using transmitted light. Apoptotic cells show cytoplasmic staining and viable cells remain unstained (FIG. 17).

Sequence: CYFDDSSNVLCKKYRS (disulfide 1-11 (inferred); not fully specified) [SEQ ID NO:45]
- phosphorylation and activation of intracellular Smad 1, 5 [1]: phosphorylation and activation of intracellular Smad 1, 5
- Smad1 phosphorylation, activation and translocation in the nucleus (HK-2 cells [2]): Smad1 phosphorylation, activation and translocation in the nucleus
- cisplatin-induced apoptosis (HK-2 cells [3]): inhibits
